Each structure is given as a SMILES string.

This experiment concerns the target T1, Fatty-acid amide hydrolase 1 (Homo sapiens, UniProt O00519).
T1 sequence (O00519 whole entry): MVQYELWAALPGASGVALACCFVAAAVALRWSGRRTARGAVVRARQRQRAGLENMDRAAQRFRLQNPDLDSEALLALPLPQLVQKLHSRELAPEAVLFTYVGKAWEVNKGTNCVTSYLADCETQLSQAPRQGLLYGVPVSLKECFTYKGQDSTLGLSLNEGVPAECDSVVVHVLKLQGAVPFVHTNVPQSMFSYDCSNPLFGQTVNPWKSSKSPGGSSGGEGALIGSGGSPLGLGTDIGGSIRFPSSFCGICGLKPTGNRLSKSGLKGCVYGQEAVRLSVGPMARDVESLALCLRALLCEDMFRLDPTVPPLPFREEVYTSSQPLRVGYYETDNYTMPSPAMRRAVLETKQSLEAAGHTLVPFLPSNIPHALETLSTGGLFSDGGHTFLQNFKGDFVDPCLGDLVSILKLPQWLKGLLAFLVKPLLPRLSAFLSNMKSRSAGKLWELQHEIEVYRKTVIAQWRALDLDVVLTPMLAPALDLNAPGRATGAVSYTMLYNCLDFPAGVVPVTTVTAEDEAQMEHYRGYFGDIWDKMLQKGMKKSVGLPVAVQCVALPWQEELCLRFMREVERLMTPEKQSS
Description: Inhibition Assay: Human FAAH 1 activity was determined by measuring the liberation of the highly fluorescent 7-amino, 4-methyl Coumarin (AMC) generated during hydrolysis of the substrate arachidonoyl 7-amino, 4-methyl coumarin amide (AAMCA) by FAAH. Inhibition of human FAAH 1 activity was determined as a percentage reduction of the fluorescence determined in the absence of compound.The assay was carried out in black-walled, clear bottom, 384-well plates. 27.5 ul of human FAAH 1 protein (in FAAH assay buffer: 50 mM Hepes, 0.01% Triton X-100, 1 mM EDTA, 0.5 mg/ml BSA (fatty-acid-free), pH 8.2) was pre-incubated, at 10 nM, with increasing concentrations of compounds (2.5 ul in 100% DMSO) for 1 hour at room temperature. 2.5 ul of DMSO was added for total controls (100% FAAH activity) and 2.5 ul of URB-597, a known inhibitor of FAAH activity, (at a final, saturating, concentration of 10 uM) was used for non-specific controls (0 FAAH activity).

The term IC50 denotes the concentration needed to halve the response being measured. Regarding `COc1ccccc1-c1ccc(OC2CN(C(=O)Nc3cccnn3)C2)nc1`, the concentration for half-maximal inhibition (IC50) was 12 nM.

The values above are taken from ChEMBL document CHEMBL3638839, “Azetidine derivatives” (2015).
